1 substance from patent publication US9345764B2, “Moesin modulators and uses thereof” (SHANGHAI KEXIN BIOTECH CO., LTD., priority 2010, dated 2016) can be followed below.

Experiment [1] deals with human pulmonary microvascular endothelial cell line (HPMEC). Nature of the experiment: Cell proliferation assay. The experiment is classed as cell-based. The note with it: agent alone; compared with negative control (Group 6, PBS); FIG. 3. As to the method:
Cell proliferation assay were performed using a human pulmonary microvascular endothelial cell line (HPMEC). Cells were plated in each well on a 6-well plate at 10^6 cells/cm^2, and cultured at […] in the presence of various testing and control reagents as described below. After culturing for a determined period of time, cells were collected and labeled for flow cytometry analysis. Proliferation rates at 2 hrs, 24 hrs and 36 hrs were determined by dividing the mean OD570 value from the tested groups with the mean OD570 value from the group having the same number of cells as the test groups at the beginning of the cell culturing.
Tested and control groups are as follows:
2) Antibody against full length moesin protein (anti-Moesin);
3) Antibody against the C-terminal tail domain only (anti-M3);
4) TNF-alpha+anti-Moesin;
6) PBS solution (negative control)

A further experiment concerns HPMEC cells. The experiment is described as follows: Annexin V apoptosis assay (FITC/PI, flow cytometry). The experiment is classed as cell-based, human. The note with it: agent alone, without combination partner. How it is done: Cell cultures in the presence of anti-moesin antibodies as described in Example 1 were subjected to apoptosis assay as well as surface antigen assay, to assess the antibody's effect on promoting endothelial cell apoptosis and on intercellular expression of moesin (indicating the active form of the protein).
Annexin V assay was used to study apoptosis. Collected cells were washed with PBS, centrifuged, and added sequentially with 70% ethanol, […] (200 mg/l) and PI (20 mg/l). Cells were then stained with Annexin-V FITC/PI kit for double staining of FITC and PI, because viable cells are both FITC and PI negative, while cells that are in early apoptosis are FITC positive but PI negative, and cells that are in late apoptosis or already dead are both FITC and PI positive. Stained cells are analyzed using a flow cytometer for amount of apoptotic cells in the presence of variant testing agents. The percentage of cells in early apoptosis and the percentage of cells in late apoptosis or dead cells after treatment with the test groups and the control group were determined and the results are shown in FIG. 4(a) and FIG. 4(b) respectively.

Take TNF-alpha: the cell proliferation rates entry in experiment [1] is reported as “reduced cell proliferation rates but not as much as in combination with anti-moesin or anti-M3”. Besides, in the experiment with HPMEC cells, the cell apoptosis entry is reported as “could induce cell apoptosis but the effect is not as much as it in combination with anti-moesin or anti-M3”.
